Data taken from patent US20180221487A1, “NOVEL PROTEIN TRANSFECTION COMPOSITIONS AND USES THEREOF” (Chang Gung Memorial Hospital, Linkou, priority 2017, published 2018).
“Also recorded” adds a separate entry of the source.

Columns and labels:
[1] = system: human ovarian cancer cells; assay: HEPES-mediated protein transfection pathway with endocytic inhibitors; assay type: cell-based; settings: pretreatment 30 min: 0.2-0.4 M sucrose, 5 μg/ml filipin or 0.0125-0.25 mM amiloride; 20 mM HEPES; after 4 hours and 24 hours
Description: Immunofluorescent staining procedure: After protein transfection is completed, the cells in the culture dish were washed three times with phosphate buffered saline (PBS) and fixed with 4% paraformaldehyde for 20 min. The cells were washed again with PBS, perforated with 0.1% Triton X-100 for 5 min, and blocked with 10% BSA for 30 min. For Alexa Fluor 488 anti-mouse IgGs, cells were stained with DAPI for 10 min. For B23, histone 1 or GAPDH antibody transfection, cells were stained with Alexa Fluor 488 or 546 anti-mouse IgG antibodies for 30 min and then stained with DAPI. For […]1 proteins or Flag-Rev peptides transfection, cells were stained with anti-v5 or anti-flag antibodies, respectively, and then stained with Alexa Fluor 488 anti-mouse IgG and DAPI. All images were detected by confocal microscopes (Leica, Wetzlar, Germany). The fluorescent signals were analyzed and quantified by Q-Win software (Leica, Wetzlar, Germany). An in vitro evaluation of HEPES-mediated protein transfection pathway was performed using the following endocytic inhibitors: sucrose (a clathrin-mediated endocytic inhibitor), filipin (a caveolae-mediated endocytic inhibitor) and amiloride (a macropinocytic inhibitor). Human ovarian cancer cells were pretreated with Opti-MEM (the control group), 0.2-0.4 M sucrose, 5 μg/ml filipin or 0.0125-0.25 mM amiloride for 30 min, followed by the transfection of Alexa Fluor 488 anti-mouse IgG antibodies using 20 mM HEPES buffer according to the steps in Example 1. The IgG antibody transfection efficiency was assessed by confocal fluorescent microscopy. […] The fluorescent signals of IgG were quantified by Q-Win software, expressed as a relative ratio in FIGS. 12C and 12D (error bars indicate s.e.m. (n=3) and asterisk denotes significant difference, P<0.001). […] The HEPES mediated protein transfection is induced by at least one of the following pathways: clathrin-mediated or caveolae-mediated endocytosis, or macropinocytosis.

[2] = system: human ovarian cancer cells; assay: Cytotoxicity of HEPES buffer concentrations (MTT and LDH assay); assay type: cell-based; settings: Opti-MEM and HEPES buffer 0-200 mM, 24 h
Description: (§1) MTT and LDH assay: In MTT assay, the cells were incubated for 24 h and then centrifuged at 1500 rpm for 5 min. The supernatants were discarded and attached cells were analyzed by MTT reagent (Promega Corporation, Wisconsin, US). In LDH assay, the cells were incubated for […] and then centrifuged at 1500 rpm for 5 min. The supernatants were collected and analyzed by LDH reagent (Sigma, St. Louis, Mo., USA). The cell viability (MTT assay) and cytotoxicity (LDH assay) were assayed following the manufacturer's protocol. The MTT and LDH signals were detected by ELISA Reader (Tecan Systems, Inc., San Jose, Calif., USA).
(§2) The cytotoxicity of various HEPES buffer concentrations was evaluated. Human ovarian cancer cells and endometrial cancer cells were incubated in Opti-MEM and HEPES buffer (0-200 mM) for 24 h. Cell viability and cytotoxicity were analyzed by MTT and LDH assay, respectively.

[3] = system: endometrial cancer cells; assay: as above; assay type: cell-based, human; settings: Opti-MEM and HEPES buffer 0-200 mM, 24 h
Description: as §1, §2

[4] = system: human ovarian cancer cells (MDAH2774); assay: Protein transfection, immunofluorescent staining / confocal microscopy; assay type: cell-based
Description: Immunofluorescent staining procedure: After protein transfection is completed, the cells in the culture dish were washed three times with phosphate buffered saline (PBS) and fixed with 4% paraformaldehyde for 20 min. The cells were washed again with PBS, perforated with 0.1% Triton X-100 for 5 min, and blocked with 10% BSA for 30 min. For Alexa Fluor 488 anti-mouse IgGs, cells were stained with DAPI for 10 min. For B23, histone 1 or GAPDH antibody transfection, cells were stained with Alexa Fluor 488 or 546 anti-mouse IgG antibodies for 30 min and then stained with DAPI. For rhSTIP1 proteins or Flag-Rev peptides transfection, cells were stained with anti-v5 or anti-flag antibodies, respectively, and then stained with Alexa Fluor 488 anti-mouse IgG and DAPI. All images were detected by confocal microscopes (Leica, Wetzlar, Germany). The fluorescent signals were analyzed and quantified by Q-Win software (Leica, Wetzlar, Germany).
FIG. 1 schematically illustrates the protein transfection procedure. Briefly, the protein of interest and a protein transfection composition, such as HEPES buffer, were mixed and incubated for about 15 min to about 30 min to form a mixture (Panel A). Cells to be transfected were replaced in a minimal essential medium (Panel B). The mixture in Panel A was added to the cells in Panel B and incubated at 37° C. for about 4 to about 24 hours (Panel C). The protein transfection efficiency can be analyzed using immunofluorescent staining or flow cytometry (Panel D).
An in vitro evaluation of the optimal protein transfection condition was performed. According to the steps in FIG. 1. rhSTIP1 was incubated with HEPES buffers of different concentrations (5 or 20 mM) or Opti-MEM (control) at room temperature for about 15 minutes to form the protein mixtures to transfect human ovarian cancer cells. The mixtures were added to the cell culture dish comprising Opti-MEM and incubated at 37° C. for about 4 to about 24 hours.
Different amounts of Alexa Fluor® 488 anti-mouse IgG (0, 2, 4, 8, or 16 μg) were incubated with 20 mM HEPES buffer and mixed with ovarian (MDAH2774) cancer cells in Opti-MEM.
Alexa Fluor 488 anti-mouse IgG antibodies were mixed with 20 mM HEPES to form a mixture. […] Protein transfection efficiency was assessed using confocal fluorescent microscope.
The following proteins were incubated with Opti-MEM (control group) or 20-30 mM HEPES buffer to transfect ovarian cancer cells (MDAH2774 or MOSEC) or endometrial cancer cells: Alexa Fluor 488-conjugated, anti-mouse IgG antibody (about 150 kDa), anti-B23 antibody, anti-histone 1 antibody, anti-STIP1 antibody, rhSTIP1 protein (62.6 kDa), Flag-Rev peptide (<5 kDa) and FITC-Rev peptide (<5 kDa). […] Protein transfection efficiency was assessed by staining the transfected cancer cells with Alexa Fluor 488 or 594 anti-mouse IgG antibodies (for Alexa Fluor 488-conjugated anti-mouse IgG antibody, anti-B23 antibody, anti-histone 1 antibody, anti-STIP1 antibody), v5 antibody (for rhSTIP1), or anti-Flag antibody (for Flag-Rev peptide), and fluorescent signals were analyzed with confocal microscopy.
The protein transfection efficiency of HEPES was compared to other commercial reagents, such as PULsin™, ProteoJuice™, Pro-Ject™, Xfect™, and BioPORTER®. […] The transfected ovarian cancer cells were stained with Alexa Fluor 488 anti-mouse IgG antibodies and protein transfection efficiency was assessed by confocal fluorescent microscopy.

[5] = system: brain tumor; assay: Alexa Fluor 488 anti-mouse IgG transfection, immunofluorescent staining; assay type: cell-based; settings: HEPES buffer 20 mM-40 mM
Description: (§3) Immunofluorescent staining procedure: After protein transfection is completed, the cells in the culture dish were washed three times with phosphate buffered saline (PBS) and fixed with 4% paraformaldehyde for 20 min. The cells were washed again with PBS, perforated with 0.1% Triton X-100 for 5 min, and blocked with 10% BSA for 30 min. For Alexa Fluor 488 anti-mouse IgGs, cells were stained with DAPI for 10 min. For B23, histone 1 or GAPDH antibody transfection, cells were stained with Alexa Fluor 488 or 546 anti-mouse IgG antibodies for 30 min and then stained with DAPI. For […]1 proteins or Flag-Rev peptides transfection, cells were stained with anti-v5 or anti-flag antibodies, respectively, and then stained with Alexa Fluor 488 anti-mouse IgG and DAPI. All images were detected by confocal microscopes (Leica, Wetzlar, Germany). The fluorescent signals were analyzed and quantified by Q-Win software (Leica, Wetzlar, Germany). FIG. 1 schematically illustrates the protein transfection procedure. Briefly, the protein of interest and a protein transfection composition, such as HEPES buffer, were mixed and incubated for about 15 min to about 30 min to form a mixture (Panel A). Cells to be transfected were replaced in a minimal essential medium (Panel B). The mixture in Panel A was added to the cells in Panel B and incubated at 37° C. for about 4 to about 24 hours (Panel C). The protein transfection efficiency can be analyzed using immunofluorescent staining or flow cytometry (Panel D). Alexa Fluor 488 anti-mouse IgG or […]1 were incubated with Opti-MEM (the control group) or HEPES buffer (20 mM-40 mM) to transfect the following cancer cells according to the steps in Example 1: human cervical cancer cells, human breast cancer cells (MCF7, BRCA009 or BRCA011), human endometrial cancer cells, lung adenocarcinoma cells, human pancreatic cancer cells, hepatocellular carcinoma cells, scarcoma cells, renal cell carcinoma cells, lymphoma cells, nasopharyngeal carcinoma cells, brain tumor cells, colon cancer cells, and leukemic cells. The protein transfection efficiency was assessed by flow cytometry or confocal microscope.

[6] = system: colon cancer; assay: as above; assay type: cell-based; settings: HEPES buffer 20 mM-40 mM
Description: as §3

[7] = system: leukemia cells; assay: as above; assay type: cell-based; settings: HEPES buffer 20 mM-40 mM
Description: as §3

[8] = system: nasopharyngeal carcinoma; assay: as above; assay type: cell-based; settings: HEPES buffer 20 mM-40 mM
Description: as §3

[9] = system: non Hodgkin's lymphoma; assay: as above; assay type: cell-based; settings: HEPES buffer 20 mM-40 mM
Description: as §3

[10] = system: renal cell carcinoma; assay: as above; assay type: cell-based; settings: HEPES buffer 20 mM-40 mM
Description: as §3

[11] = system: scarcoma cells; assay: as above; assay type: cell-based; settings: HEPES buffer 20 mM-40 mM
Description: as §3

[12] = system: breast cancer cells (BRCA009); assay: as above; assay type: cell-based, human; settings: after 6 hours of incubation
Description: (§4) Immunofluorescent staining procedure: After protein transfection is completed, the cells in the culture dish were washed three times with phosphate buffered saline (PBS) and fixed with 4% paraformaldehyde for 20 min. The cells were washed again with PBS, perforated with 0.1% Triton X-100 for 5 min, and blocked with 10% BSA for 30 min. For Alexa Fluor 488 anti-mouse IgGs, cells were stained with DAPI for 10 min. For B23, histone 1 or GAPDH antibody transfection, cells were stained with Alexa Fluor 488 or 546 anti-mouse IgG antibodies for 30 min and then stained with DAPI. For […]1 proteins or Flag-Rev peptides transfection, cells were stained with anti-v5 or anti-flag antibodies, respectively, and then stained with Alexa Fluor 488 anti-mouse IgG and DAPI. All images were detected by confocal microscopes (Leica, Wetzlar, Germany). The fluorescent signals were analyzed and quantified by Q-Win software (Leica, Wetzlar, Germany). FIG. 1 schematically illustrates the protein transfection procedure. Briefly, the protein of interest and a protein transfection composition, such as HEPES buffer, were mixed and incubated for about 15 min to about 30 min to form a mixture (Panel A). […] The protein transfection efficiency can be analyzed using immunofluorescent staining or flow cytometry (Panel D). […] The protein transfection efficiency was assessed by flow cytometry or confocal microscope.

[13] = system: breast cancer cells (BRCA011); assay: as above; assay type: cell-based, human; settings: after 24 hours of incubation
Description: as §4

N=C(N)NC(=O)c1nc(Cl)c(N)nc1N [amiloride]
effect on HEPES-mediated IgG transfection [1]: reduced

CCCCC[C@@H](O)[C@H]1C(=O)O[C@H](C)[C@@H](O)/C=C/C=C/C=C/C=C/C=C(\C)[C@@H](O)C[C@H](O)C[C@H](O)C[C@H](O)C[C@H](O)C[C@H](O)C[C@@H]1O [filipin]
effect on HEPES-mediated IgG transfection [1]: reduced

OC[C@H]1O[C@@](CO)(O[C@H]2O[C@H](CO)[C@@H](O)[C@H](O)[C@H]2O)[C@@H](O)[C@@H]1O [sucrose]
effect on HEPES-mediated IgG transfection [1]: reduced

O=S(=O)(O)CCN1CCN(CCO)CC1 [HEPES buffer, 4-(2-hydroxyethyl)-1-piperazineethanesulfonic acid]
HEPES buffer concentration at which cell growth was inhibited [2]: 50 mM
HEPES buffer concentration at which cell growth was inhibited [3]: 50 mM
transfection of Alexa Fluor 488 anti-mouse IgG antibody in the cytoplasm compared to control group (Opti-MEM) ([4]; 20-30 mM HEPES buffer, confocal microscopy): increased
IgG transfection efficiency compared to commercial protein transfection reagents ([4]; anti-GAPDH antibody, HEPES buffer 20 mM vs PULSin, ProteoJuice, Pro-Ject, Xfect, BioPorter): comparable
protein transfection efficiency, second incubation time 24 hours compared to 4 hours ([4]; rhSTIP1, 5 mM HEPES buffer): improved
protein transfection efficiency as a function of HEPES concentration ([4]; rhSTIP1 incubated with HEPES about 15 min, cells in Opti-MEM 4 to 24 hours): increases with a higher HEPES concentration; also recorded: does not increase further with HEPES concentration higher than 30 to 50 mM
Alexa Fluor 488 anti-mouse IgG signal using HEPES buffer compared to Opti-MEM [5]: increased
Alexa Fluor 488 anti-mouse IgG signal using HEPES buffer compared to Opti-MEM [6]: increased
Alexa Fluor 488 anti-mouse IgG signal using HEPES buffer compared to Opti-MEM [7]: increased
Alexa Fluor 488 anti-mouse IgG signal using HEPES buffer compared to Opti-MEM [8]: increased
Alexa Fluor 488 anti-mouse IgG signal using HEPES buffer compared to Opti-MEM [9]: increased
Alexa Fluor 488 anti-mouse IgG signal using HEPES buffer compared to Opti-MEM [10]: increased
Alexa Fluor 488 anti-mouse IgG signal using HEPES buffer compared to Opti-MEM [11]: increased
Alexa Fluor 488 anti-mouse IgG signal using HEPES buffer compared to Opti-MEM [12]: increased
Alexa Fluor 488 anti-mouse IgG signal using HEPES buffer compared to Opti-MEM [13]: increased
